For experiment [1], the target named is T1, human recombinant HDAC1 (Homo sapiens, UniProt Q13547).
T1 construct: purchased Enzo Life Science, Inc. BML-SE456
Put plainly: HDAC1 enzyme activity inhibition (HDAC Fluorimetric Drug Discovery Kit). Particulars: read-out: HDAC1. It counts as biochemical. The method, boiled down:
(§1)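 Fluorimetric deacetylase read-out. 5-fold compound dilutions; […] enzyme, 10 μM substrate; 30° C, 60 min; developer 30 min.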

Experiment [2] addresses T2, human recombinant HDAC6 (Homo sapiens, UniProt Q9UBN7).
T2 construct: purchased Calbiochem Inc. 382180
T2 sequence (Q9UBN7 1-1215): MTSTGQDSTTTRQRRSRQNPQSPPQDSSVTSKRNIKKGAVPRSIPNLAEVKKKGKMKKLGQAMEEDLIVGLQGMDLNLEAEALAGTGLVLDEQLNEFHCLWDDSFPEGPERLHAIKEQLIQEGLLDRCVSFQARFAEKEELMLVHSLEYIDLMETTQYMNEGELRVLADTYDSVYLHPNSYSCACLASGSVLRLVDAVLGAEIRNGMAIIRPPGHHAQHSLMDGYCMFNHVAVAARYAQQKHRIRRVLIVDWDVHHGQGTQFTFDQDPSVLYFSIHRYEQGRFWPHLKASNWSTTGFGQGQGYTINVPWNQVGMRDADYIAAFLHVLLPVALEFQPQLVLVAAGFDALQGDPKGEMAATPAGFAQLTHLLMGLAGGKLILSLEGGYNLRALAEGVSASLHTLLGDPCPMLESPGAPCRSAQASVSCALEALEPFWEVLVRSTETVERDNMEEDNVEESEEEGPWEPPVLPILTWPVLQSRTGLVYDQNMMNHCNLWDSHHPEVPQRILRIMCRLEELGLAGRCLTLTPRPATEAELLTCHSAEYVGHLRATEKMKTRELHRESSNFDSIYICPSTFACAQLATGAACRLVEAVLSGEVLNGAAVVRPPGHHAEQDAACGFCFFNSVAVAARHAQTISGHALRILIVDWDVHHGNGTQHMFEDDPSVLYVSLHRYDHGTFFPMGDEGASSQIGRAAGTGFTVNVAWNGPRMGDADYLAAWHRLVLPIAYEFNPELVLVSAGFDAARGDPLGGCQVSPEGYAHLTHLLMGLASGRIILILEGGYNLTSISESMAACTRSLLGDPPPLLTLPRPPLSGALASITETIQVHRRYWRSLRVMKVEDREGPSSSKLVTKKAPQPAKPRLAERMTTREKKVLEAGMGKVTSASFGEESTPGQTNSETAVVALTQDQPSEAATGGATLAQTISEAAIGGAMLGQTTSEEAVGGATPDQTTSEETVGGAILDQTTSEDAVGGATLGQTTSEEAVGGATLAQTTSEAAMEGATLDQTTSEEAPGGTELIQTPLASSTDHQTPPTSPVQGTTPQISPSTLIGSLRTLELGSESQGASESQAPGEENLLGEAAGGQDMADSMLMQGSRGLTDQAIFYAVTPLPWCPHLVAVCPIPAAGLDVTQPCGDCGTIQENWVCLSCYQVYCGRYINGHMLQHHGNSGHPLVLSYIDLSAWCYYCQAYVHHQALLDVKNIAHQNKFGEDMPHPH
Put plainly: HDAC6 enzyme activity inhibition (HDAC Fluorimetric Drug Discovery Kit). The class given is biochemical. In outline:
as §1

Setting [3] is: human recombinant HDAC1, IC50 calculated with GraphPad Prism.
Setting [4] is: human recombinant HDAC6, IC50 calculated with GraphPad Prism.
Where [5] appears, read: human recombinant HDAC1, Fluor de Lys substrate, 30° C. 60 minutes.
[6] abbreviates: human recombinant HDAC6, same protocol as HDAC1.

Like-named read-outs stand apart in the source and are kept apart here.

This is an account of results in patent publication US20230257372A1 (CHONG KUN DANG PHARMACEUTICAL CORP., priority 2020, published 2023).

T1 sequence (Q13547 whole entry): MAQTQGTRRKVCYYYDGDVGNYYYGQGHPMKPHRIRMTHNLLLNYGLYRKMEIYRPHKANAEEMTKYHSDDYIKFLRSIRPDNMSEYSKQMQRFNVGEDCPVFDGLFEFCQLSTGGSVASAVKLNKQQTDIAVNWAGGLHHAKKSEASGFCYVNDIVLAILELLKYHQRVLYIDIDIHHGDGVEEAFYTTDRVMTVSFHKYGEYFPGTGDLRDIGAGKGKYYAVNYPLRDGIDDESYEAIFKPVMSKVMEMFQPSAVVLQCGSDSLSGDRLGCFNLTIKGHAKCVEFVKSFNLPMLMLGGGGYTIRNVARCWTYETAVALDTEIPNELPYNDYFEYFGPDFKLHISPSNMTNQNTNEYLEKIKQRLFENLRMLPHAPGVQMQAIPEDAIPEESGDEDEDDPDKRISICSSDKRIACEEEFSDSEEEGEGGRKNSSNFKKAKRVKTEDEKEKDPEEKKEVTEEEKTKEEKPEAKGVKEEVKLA

Take `O=C(O)c1cccc(-c2cn(Cc3ccc(-c4nnc(C(F)F)o4)cc3F)nn2)c1` [Compound 3660, 3-(1-(4-(5-(difluoromethyl)-1,3,4-oxadiazol-2-yl)-2-fluorobenzyl)-1H-1,2,3-triazol-4-yl)benzoic acid]: the IC50 was more than 50 µM in experiment [1] (setting [3]) and 285 nM in experiment [2] (setting [4]). The “HDAC6 selectivity (fold)” value in experiment [2] (HDAC1 IC50 / HDAC6 IC50) amounted to 175 fold.
As for `CN1CCN(c2cccc(-c3cn(Cc4ncc(-c5nnc(C(F)F)o5)cc4F)nn3)c2)CC1` [Compound 18924, 2-(difluoromethyl)-5-(5-fluoro-6-((4-(3-(4-methylpiperazin-1-yl)phenyl)-1H-1,2,3-triazol-1-yl)methyl)pyridin-3-yl)-1,3,4-oxadiazole], the IC50 was more than 50 µM in experiment [1] (setting [5]) and 80 nM in experiment [2] (setting [6]). In experiment [2] (HDAC6 over HDAC1), the “HDAC6 selectivity (fold)” value is reported as 625 fold.
As for `Fc1ccc(-c2cn(Cc3ccc(-c4nnc(C(F)F)o4)cc3F)nn2)cc1F` [Compound 3662, 2-(difluoromethyl)-5-(4-((4-(3,4-difluorophenyl)-1H-1,2,3-triazol-1-yl)methyl)-3-fluorophenyl)-1,3,4-oxadiazole], the IC50 in experiment [1] (setting [3]) was more than 50 µM; in experiment [2] (setting [4]), 173 nM. Also, the “HDAC6 selectivity (fold)” value in experiment [2] (HDAC1 IC50 / HDAC6 IC50) is given as 289 fold.
Consider `OC1(c2cn(Cc3ccc(-c4nnc(C(F)F)o4)cc3F)nn2)COC1` [Compound 4278, 3-(1-(4-(5-(difluoromethyl)-1,3,4-oxadiazol-2-yl)-2-fluorobenzyl)-1H-1,2,3-triazol-4-yl)oxetan-3-ol], for which the IC50 in experiment [1] (setting [3]) is more than 50 µM; in experiment [2] (setting [4]), 311 nM. Further, the “HDAC6 selectivity (fold)” value in experiment [2] (HDAC1 IC50 / HDAC6 IC50) is listed as 160 fold.
With `Fc1cc(-c2nnc(C(F)F)o2)ccc1Cn1cc(-c2cncs2)nn1` [Compound 17851, 2-(difluoromethyl)-5-(3-fluoro-4-((4-(thiazol-5-yl)-1H-1,2,3-triazol-1-yl)methyl)phenyl)-1,3,4-oxadiazole], the IC50 in experiment [1] (setting [5]) is more than 50 µM; in experiment [2] (setting [6]), 84.9 nM. Besides, in experiment [2] (HDAC6 over HDAC1), the “HDAC6 selectivity (fold)” value was found to be 588 fold.
On to `CCN(CC)Cc1ccc(-c2cn(Cc3ccc(-c4nnc(C(F)F)o4)cc3F)nn2)cc1` [Compound 4608, N-(4-(1-(4-(5-(difluoromethyl)-1,3,4-oxadiazol-2-yl)-2-fluorobenzyl)-1H-1,2,3-triazol-4-yl)benzyl)-N-ethylethanamine], for which the IC50 is more than 50 µM in experiment [1] (setting [5]) and 26.4 nM in experiment [2] (setting [6]). Also, the “HDAC6 selectivity (fold)” value in experiment [2] (HDAC6 over HDAC1) was determined as 1893 fold.
On to `CN(C)C(C)(C)C(=O)Nc1cccc(-c2cn(Cc3ccc(-c4nnc(C(F)F)o4)cn3)nn2)c1` [Compound 4231, N-(3-(1-((5-(5-(difluoromethyl)-1,3,4-oxadiazol-2-yl)pyridin-2-yl)methyl)-1H-1,2,3-triazol-4-yl)phenyl)-2-(dimethylamino)-2-methylpropanamide], for which the values for the IC50 in experiment [1] (setting [3]) and in experiment [2] (setting [4]) were more than 50 µM and 54.7 nM, respectively. The “HDAC6 selectivity (fold)” value in experiment [2] (HDAC1 IC50 / HDAC6 IC50) worked out at 914 fold.
With `FC(F)c1nnc(-c2ccc(Cn3cc(-c4ccc(CNC5CCC5)cc4)nn3)cc2)o1` [Compound 4555, N-(4-(1-(4-(5-(difluoromethyl)-1,3,4-oxadiazol-2-yl)benzyl)-1H-1,2,3-triazol-4-yl)benzyl)cyclobutanamine], the values for the IC50 in experiment [1] (setting [5]) and in experiment [2] (setting [6]) were more than 50 µM and 23.8 nM, respectively. Moreover, the “HDAC6 selectivity (fold)” value in experiment [2] (HDAC6 over HDAC1) was determined as 2100 fold.
The matching figures for `CCN1CCN(c2cc(-c3cn(Cc4ccc(-c5nnc(C(F)F)o5)cn4)nn3)ccn2)CC1` [Compound 4591, 2-(difluoromethyl)-5-(6-((4-(2-(4-ethylpiperazin-1-yl)pyridin-4-yl)-1H-1,2,3-triazol-1-yl)methyl)pyridin-3-yl)-1,3,4-oxadiazole]: more than 50 µM, 14.1 nM and 3546 fold.
For `CN1CCC(Nc2cccc(-c3cn(Cc4ccc(-c5nnc(C(F)F)o5)cn4)nn3)c2)CC1` [Compound 3830, N-(3-(1-((5-(5-(difluoromethyl)-1,3,4-oxadiazol-2-yl)pyridin-2-yl)methyl)-1H-1,2,3-triazol-4-yl)phenyl)-1-methylpiperidin-4-amine], the figures for the IC50 in experiment [1] (setting [3]) and in experiment [2] (setting [4]) were more than 50 µM and 22.8 nM, respectively. Besides, in experiment [2] (HDAC1 IC50 / HDAC6 IC50), the “HDAC6 selectivity (fold)” value is on record as 219 fold.
As to `FC(F)c1nnc(-c2ccc(Cn3cc(-c4cccc5cc[nH]c45)nn3)cc2)o1` [Compound 4081, 2-(4-((4-(1H-indol-7-yl)-1H-1,2,3-triazol-1-yl)methyl)phenyl)-5-(difluoromethyl)-1,3,4-oxadiazole], the IC50 in experiment [1] (setting [3]) is more than 50 µM; in experiment [2] (setting [4]), 105 nM. In experiment [2] (HDAC1 IC50 / HDAC6 IC50), the “HDAC6 selectivity (fold)” value is 478 fold.
For `CN(C)C1CCN(Cc2ccc(-c3cn(Cc4ccc(-c5nnc(C(F)F)o5)cn4)nn3)cc2)CC1` [Compound 4564, 1-(4-(1-((5-(5-(difluoromethyl)-1,3,4-oxadiazol-2-yl)pyridin-2-yl)methyl)-1H-1,2,3-triazol-4-yl)benzyl)-N,N-dimethylpiperidin-4-amine], the IC50 in experiment [1] (setting [5]) is more than 50 µM; in experiment [2] (setting [6]), 21.2 nM. In addition, the “HDAC6 selectivity (fold)” value in experiment [2] (HDAC6 over HDAC1) is given as 2358 fold.
In the case of `CC(C)N1CC(c2cccc(-c3cn(Cc4ccc(-c5nnc(C(F)F)o5)cc4)nn3)c2)C1` [Compound 4509, 2-(difluoromethyl)-5-(4-((4-(3-(1-isopropylazetidin-3-yl)phenyl)-1H-1,2,3-triazol-1-yl)methyl)phenyl)-1,3,4-oxadiazole], the IC50 in experiment [1] (setting [5]) was more than 50 µM; in experiment [2] (setting [6]), 20.9 nM. In addition, the “HDAC6 selectivity (fold)” value in experiment [2] (HDAC6 over HDAC1) is on record as 2392 fold.
`CCC(=O)N1CC(c2cn(Cc3ccc(-c4nnc(C(F)F)o4)cn3)nn2)C1` [Compound 3957, 1-(3-(1-((5-(5-(difluoromethyl)-1,3,4-oxadiazol-2-yl)pyridin-2-yl)methyl)-1H-1,2,3-triazol-4-yl)azetidin-1-yl)propan-1-one]: the values for the IC50 in experiment [1] (setting [3]) and in experiment [2] (setting [4]) were more than 50 µM and 496 nM, respectively. Also, in experiment [2] (HDAC1 IC50 / HDAC6 IC50), the “HDAC6 selectivity (fold)” value was found to be 100 fold.
For `Fc1cc(-c2nnc(C(F)F)o2)cnc1Cn1cc(-c2cccc3[nH]ccc23)nn1` [Compound 18921, 2-(6-((4-(1H-indol-4-yl)-1H-1,2,3-triazol-1-yl)methyl)-5-fluoropyridin-3-yl)-5-(difluoromethyl)-1,3,4-oxadiazole], the IC50 in experiment [1] (setting [5]) was more than 50 µM; in experiment [2] (setting [6]), 31.4 nM. Further, the “HDAC6 selectivity (fold)” value in experiment [2] (HDAC6 over HDAC1) is 1592 fold.
On to `CN(C)C1CCN(Cc2ccc(-c3cn(Cc4ccc(-c5nnc(C(F)F)o5)cc4F)nn3)cc2)CC1` [Compound 4494, 1-(4-(1-(4-(5-(difluoromethyl)-1,3,4-oxadiazol-2-yl)-2-fluorobenzyl)-1H-1,2,3-triazol-4-yl)benzyl)-N,N-dimethylpiperidin-4-amine], for which the IC50 in experiment [1] (setting [3]) is more than 50 µM; in experiment [2] (setting [4]), 34.1 nM. In experiment [2] (HDAC1 IC50 / HDAC6 IC50), the “HDAC6 selectivity (fold)” value came out at 1466 fold.
With `Fc1ccc(-c2cn(Cc3ccc(-c4nnc(C(F)F)o4)cn3)nn2)cc1` [Compound 3855], the IC50 in experiment [1] (setting [3]) is more than 50 µM; in experiment [2] (setting [4]), 27.5 nM. Moreover, the “HDAC6 selectivity (fold)” value in experiment [2] (HDAC1 IC50 / HDAC6 IC50) was 1818 fold.
Consider `Fc1cc(-c2nnc(C(F)F)o2)cnc1Cn1cc(-c2cncc(CN3CCC3)c2)nn1` [Compound 18882, 2-(6-((4-(5-(azetidin-1-ylmethyl)pyridin-3-yl)-1H-1,2,3-triazol-1-yl)methyl)-5-fluoropyridin-3-yl)-5-(difluoromethyl)-1,3,4-oxadiazole], for which the IC50 was more than 50 µM in experiment [1] (setting [5]) and 163 nM in experiment [2] (setting [6]). Besides, the “HDAC6 selectivity (fold)” value in experiment [2] (HDAC6 over HDAC1) is listed as 306 fold.
